Like-named read-outs stand apart in the source and are kept apart here.
Experiments:
[1] = Ferric ions (Fe^3+) reducing antioxidant power by cyclic voltammetry
Experimental: The evaluated compounds’ stock solutions used were prepared at a concentration of 5 mM. To test their redox properties, dilutions of 0.5 mM and 2 mM were prepared in 0.1 M HClO4 electrolyte (pH = 1.2). Screen-printed electrodes (SPEs; Metrohm DropSens, Oviedo, Spain) (planar electrodes) with graphite and gold working electrodes were used. Cyclic voltammetry (CV) and differential pulse voltammetry (DPV) were the electrochemical methods applied. The experimental conditions for each test are mentioned near the corresponding data (Appendix A).
(§1) The antioxidant properties were evaluated in terms of their activity against some free radicals, and other compounds reported in the literature, relevant for this purpose, such as: • ferric ions (Fe^3+)—used to test the reduction of the antioxidant character of the compounds; • DPPH˙ free radical– used to test the scavenging effect of the compounds on this radical; • hydrogen peroxide (H2O2)—used to test the scavenging effect of the synthesized molecules on this compound; • 2,2,6,6-tetramethylpiperidinyl-1-oxy (TEMPO)—used to test the scavenging effect of the synthesized molecules on this compound.
This method is based on the evaluation of the influence of the compound measured by the direct reduction of Fe[(CN)6]^3− to […]. This assay is based on the reduction of Fe^3+ to Fe^2+ due to the action of antioxidants. Based on the electrochemical behavior of the studied compounds, the interaction of Fe^3+ was followed by cyclic voltammetry (CV) via the possible changes of redox peaks characteristic for Fe^3+/Fe^2+ transition after the interaction with antioxidants (if any).
From the voltammogram of potassium ferricyanide it can be observed that the one-electron transfer process Fe^3+/Fe^2+ occurs at 0.247 V/ 0.150 V in acidic media (red) (Figure A1; Table A1).
Each compound presents its characteristic peaks (blue line in each figure).

[2] = TEMPO scavenging by differential pulse voltammetry; details: 2 mM TEMPO, one hour incubation, 0.1 M HClO4, DPV
Experimental: as §1
TEMPO (2,2,6,6-tetramethylpiperidine-N-oxyl) is a stable organic nitroxide radical that has been reported to scavenge carbon-centered radicals.
Differential pulse voltammetry (DPV) was then applied in order to evaluate the antioxidant effectiveness of the novel compounds through their ability to scavenge the free radical species.

HaCaT cells = experiment: Cytotoxicity determination, MTT method; format: cell-based; details: Homo sapiens, HaCaT cells, MTT, 24 h
Experimental: To determine the cytotoxic action of the obtained compounds 5[…], and 8a-b, a normal human keratinocytes cell line was used (HaCaT keratinocytes, CLS-300493, Eppelheim, Germany). HaCaT cells were cultured in Dulbecco's Modified Eagle Media (DMEM) supplemented with 1% L-glutamine, 1% penicillin-streptomycin, and 5% fetal bovine serum. At 80% confluence, the cells were transferred to 96 well plates at a confluence of 12×10^3 cells/well and left to attach for 24 h at 37°C and 5% CO2 in a humidified atmosphere. […] After 24 h, the culture media was replaced with 100 μL of MTT solution at a final concentration of 5 μg/mL/well and left to interact with the cells for 2 h in the incubator. After this, the MTT solution was replaced with 100 μL of isopropanol, left to dissolve the formazan crystals for 5 min, and read at 550 and 630 nm using a BioTek Epoch plate reader (BioTek Instruments, Winooski, VT, USA) and Gen5 software (version 1.09).

C. albicans ATCC 102310 = experiment: Antifungal activity, modified microdilution; format: cell-based; details: Candida albicans, ATCC102310
Experimental: For evaluating the antimicrobial activity of the compounds, […] aerobic microbial strains were used: S. aureus ATCC 25923, S. pyogenes ATCC 19615, P. aeruginosa ATCC 27853, S. enterica ISM 83/37, S. typhimurium ATCC 14028, E. coli ATCC 8739, E. coli ATCC 25922, and C. albicans ATCC 102310 obtained from Food Biotechnology Laboratory, Life Sciences Institute, University of Agricultural Sciences, and Veterinary Medicine Cluj Napoca, where the experiment was performed. The antimicrobial activity of the compounds was determined using a modified microdilution technique, and the followed protocol was previously reported.
The antimicrobial activity of the final compounds, against seven aerobic microbial strains (S. aureus ATCC 25923, S. pyogenes ATCC 19615, P. aeruginosa ATCC 27853, S. enterica ISM 83/37, S. typhimurium ATCC 14028, E. coli ATCC 8739, E. coli ATCC 25922), and a fungal strain (C. albicans ATCC 102310), was determined using a modified microdilution technique.
The results of the antimicrobial activity evaluation of the compounds, in comparison to norfloxacin and chloramphenicol used as standard antibiotics and fluconazole used as reference antifungal, are depicted in Table 10.

[3] = DPPH˙ radical scavenging assay; format: biochemical; details: for IC50: DPPH˙ scavenging
Experimental: The 2,2-diphenyl-1-picrylhydrazyl (DPPH˙) radical scavenging assay is based on the transfer of one hydrogen from the analyzed compound to the violet radical DPPH˙. This will convert it to a yellow compound, the change in absorbance being proportional to the amount of DPPH˙ neutralized, according to Brand-Williams et al..
The preparation of the DPPH˙ reagent was previously reported by our group. […] Over the previous quantities, DMSO was added until a total volume of 50 µL was obtained in all cuvettes, and 1950 µL of DPPH˙ solution was added to all cuvettes; then, they were shaken for well over 10 min in the dark at room temperature. The absorbances of the solutions were measured at λ = 517 nm. The DPPH˙ radical scavenging activity of evaluated compounds was calculated using Equation (2):(2) DPPH scavenging (%)=control absorbance−sample absorbance/control absorbance×100

[4] = compound 0.5 mM + Fe^3+/Fe^2+ (0.5 mM potassium ferricyanide), 1st Eox column
[5] = compound 0.5 mM + Fe^3+/Fe^2+ (0.5 mM potassium ferricyanide), 1st Iox column
[6] = compound + Fe^3+/Fe^2+, 1st Ered
[7] = compound + Fe^3+/Fe^2+, 1st Ired
[8] = compound + Fe^3+/Fe^2+, 2nd Eox
[9] = compound + Fe^3+/Fe^2+, 2nd Ered column
[10] = compound + Fe^3+/Fe^2+, 2nd Iox column
[11] = compound + Fe^3+/Fe^2+, 2nd Ired
[12] = compound + Fe^3+/Fe^2+, 3rd Iox column
[13] = compound + Fe^3+/Fe^2+, 5th Eox
[14] = compound + Fe^3+/Fe^2+, 5th Iox column
[15] = compound alone 0.5 mM in 0.1 M HClO4, 2nd Eox
[16] = compound alone 0.5 mM in 0.1 M HClO4, 2nd Ered column
[17] = compound alone 0.5 mM in 0.1 M HClO4, 2nd Iox column
[18] = compound alone 0.5 mM in 0.1 M HClO4, 2nd Ired
[19] = compound alone 0.5 mM in 0.1 M HClO4, 3rd Eox column
[20] = compound alone 0.5 mM in 0.1 M HClO4, 3rd Iox column
[21] = compound alone 0.5 mM in 0.1 M HClO4, 5th Eox
[22] = compound alone 0.5 mM in 0.1 M HClO4, 5th Iox column
[23] = compound + Fe^3+/Fe^2+, 3rd Eox column

Row | SMILES | Eox (V) [1, 4] [V] | Iox (μA) [1, 5] [μA] | Ered (V) [1, 6] [V] | Ired (μA) [1, 7] [μA] | Eox (V) [1, 8] [V] | Iox (μA) [1, 10] [μA] | Iox (μA) [1, 12] [μA] | Eox (V) [1, 13] [V] | Iox (μA) [1, 14] [μA] | Eox (V) [1, 15] [V] | Iox (μA) [1, 17] [μA] | oxidation signal for TEMPO after incubation with the compound [2] | IC50 (HaCaT cells; read-out: IC50) [µM] | IC50 (HaCaT cells; read-out: IC50 (µg/mL)) [µg/mL] | MIC (C. albicans ATCC 102310) [µg/mL] | % of DPPH˙ Scavenged ([3]; 1 µg/mL) [%] | % of DPPH˙ Scavenged ([3]; 1.5 µg/mL) [%] | % of DPPH˙ Scavenged ([3]; 2 µg/mL) [%] | % of DPPH˙ Scavenged ([3]; 3 µg/mL) [%] | % of DPPH˙ Scavenged ([3]; 5 µg/mL) [%] | also measured
1 | C/C(=N\Nc1nc(C)cs1)c1ccc(O)cc1O [Compound 5a, Dihydroxy-Phenyl-Thiazol-Hydrazinium chloride] | 0.152 | 3.69 | 0.091 | −7.33 | 0.308 | 16.21 | 4.14 | 0.903 | 3.82 | 0.308 | 8.83 | both the signal shift to higher oxidation potentials and its decrease | 102 | 30.7 | > 100 |  |  |  |  |  | Ered (V) [1, 9]: 0.323 V; Ired (μA) [1, 11]: −0.99 μA; Ered (V) [1, 16]: 0.318 V; Ired (μA) [1, 18]: −1.23 μA; Eox (V) [1, 19]: 0.573 V; Iox (μA) [1, 20]: 5.23 μA; Eox (V) [1, 21]: 0.997 V; Iox (μA) [1, 22]: 9.78 μA
2 | Cc1csc(N/N=C/c2ccc(O)cc2O)n1.Cl [Compound 5b, (E)-2-(2,4-dihydroxybenzylidene)-1-(4-methylthiazol-2-yl)hydrazin-1-ium chloride] | 0.152 | 5.57 | 0.093 | −8.66 | 0.342 | 22.3 | 1.20 | 0.806 | 8.68 | 0.355 | 15.68 | both the signal shift to higher oxidation potentials and its decrease | 176 | 50.3 |  | 16.46 | 24.42 | 34.44 | 52.10 | 87.08 | Ered (V) [1, 9]: 0.323 V; Ired (μA) [1, 11]: −1.52 μA; Eox (V) [1, 23]: 0.505 V; Eox (V) ([1]; compound + Fe^3+/Fe^2+, 4th Eox column): 0.506 V; Iox (μA) ([1]; compound + Fe^3+/Fe^2+, 4th Iox column): 8.68 μA; Ered (V) [1, 16]: 0.327 V; Ired (μA) [1, 18]: −1.56 μA; MIC (C. albicans ATCC 102310; C. albicans ATCC 102310, read-out: MIC): > 100 µg/mL; IC50 [3]: 2.90 µg/mL
3 | Br.C/C(=N\Nc1nc(-c2ccccc2)cs1)c1ccc(O)cc1O [Compound 6a, (E)-2-(1-(2,4-dihydroxyphenyl)ethylidene)-1-(4-phenylthiazol-2-yl)hydrazin-1-ium bromide] |  |  | 0.142 | −5.88 | 0.223 | 2.74 | 3.82 |  |  |  | 3.04 | does not decrease | 312 | 127 | > 100 | 5.90 | 9.07 | 12.87 | 19.88 | 38.13 | Eox (V) [1, 23]: 0.424 V; Eox (V) [1, 19]: 0.586 V; Iox (μA) [1, 20]: 6.79 μA; IC50 [3]: 6.56 µg/mL
4 | Br.Oc1ccc(/C=N/Nc2nc(-c3ccccc3)cs2)c(O)c1 [Compound 6b, (E)-2-(2,4-dihydroxybenzylidene)-1-(4-phenylthiazol-2-yl)hydrazin-1-ium bromide] | 0.203 | 2.48 | 0.149 | −8.26 | 0.325 | 44.78 |  | 0.879 | 21.84 | 0.386 | 37.55 | does not decrease | < 1.27 | < 0.5 | 62.5 | 10.60 | 13.62 | 17.23 | 23.89 | 41.22 | Eox (V) [1, 21]: 0.894 V; Iox (μA) [1, 22]: 8.86 μA; IC50 [3]: 6.23 µg/mL

— PMC8615111, “Phenolic Thiazoles with Antioxidant and Antiradical Activity. Synthesis, In Vitro Evaluation, Toxicity, Electrochemical Behavior, Quantum Studies and Antimicrobial Screening” (Antioxidants, 2021)
